Measurements: PMC8533202, “Design of Inhibitors of the Intrinsically Disordered Protein NUPR1: Balance between Drug Affinity and Target Function” (Biomolecules, 2021)

Key:
NUPR1 = target: T1, NUPR1 (Homo sapiens, UniProt O60356); assay: Isothermal titration calorimetry (ITC) binding to NUPR1; conditions: 25 °C; for N (stoichiometry) / ΔG / ΔH / −TΔS: pH 7.0; for Ka / Kd: sodium phosphate 20 mM, pH 7.0, 2% DMSO; for Kd: read-out: Kd (=1/Ka)
T1 construct: made in house
T1 sequence (O60356 1-82): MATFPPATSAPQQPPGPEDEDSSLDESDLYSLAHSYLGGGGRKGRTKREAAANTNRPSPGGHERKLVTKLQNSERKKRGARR
Procedure: The binding of the ZZW-115-derived compounds to NUPR1 was determined as described by using a high sensitivity isothermal titration calorimeter Auto-iTC200 (MicroCal, Malvern-Panalytical, Malvern, UK). Protein samples and solutions were properly degassed. Experiments were performed with freshly prepared protein solutions at 25 °C. A solution of NUPR1 (20 μM, in sodium phosphate 20 mM, pH 7.0, 2% DMSO) in the calorimetric cell was titrated with a solution of each compound (200 μM, in sodium phosphate 20 mM pH 7.0, 2% DMSO). The inhibitors were dissolved in the same buffer used for the protein. A standard protocol was employed: 19 titrant injections with 2 μL compound solution were programmed with a time spacing of 150 s, a stirring speed of 750 rpm, and a reference power of 10 μcal/s. The heat evolved after each ligand injection was calculated from the integral of the calorimetric signal. The heat due to the binding reaction was obtained as the difference between the reaction heat and the corresponding heat of injection, the latter estimated as a constant value throughout the experiment, and included as an adjustable parameter in the analysis. Control experiments (with the compounds injected into the buffer) were performed under the same experimental conditions.
The association constant (Ka), the enthalpy change (ΔH) and the stoichiometry (n) of the binding reaction were obtained through nonlinear regression analysis of experimental data to a model assuming a single ligand binding site for the protein. Experiments were performed in replicate and data were analyzed using in-house-developed software implemented in Origin 7 (OriginLab).
The interaction between ZZW-115-Derived compounds and NUPR1 was studied by using ITC, the gold-standard technique in binding-affinity determination, to test our theoretical prediction. […] From the thermogram (thermal power as a function of time), the binding isotherm (ligand-normalized heat as a function of the molar ratio) was obtained through integration of the individual heat effect associated with injection of each ligand solution (Figure 3). We used a nonlinear least-squares regression analysis employing a model that considered a single binding site in NUPR1 to estimate binding parameters such as the dissociation constant and the binding enthalpy.

PDAC001T cells = assay: Cell viability assay (PrestoBlue); assay type: cell-based; conditions: Homo sapiens; PDAC001T (basal subtype), 72 h
Text: (§1) Primary pancreatic cancer cells PDAC001T, PDAC012T, PDAC021T, PDAC081T, PDAC082T, PDAC087T, PDAC088T, PDAC089T, and PDAC115T were obtained from the PaCaOmics clinical trial registered at www.clinicaltrials.gov (accessed on 2 October 2021) with registration number NCT01692873. We included PDAC samples from both echoendoscopic ultrasound-guided fine-needle (EUS-FNA) biopsies for patients with unresectable tumors and from surgical specimens for patients undergoing surgery. The tumor samples of these patients were used to generate patient-derived xenograft in nude mice as previously reported. Xenografts obtained from mice were split into several small pieces and used for cell culture in a biosafety chamber: after fine mincing, they were treated with collagenase type V (ref C9263; Sigma-Aldrich, St. Louis, MO, USA) and trypsin/EDTA (ref 25200-056; Gibco, Life Technologies, Grand Island, NY, USA) and were suspended in Dulbecco’s modified Eagle’s medium supplemented with 1% w/w penicillin/streptomycin (Gibco, Life Technologies, Paisley, UK) and 10% fetal bovine serum (Lonza Inc., Walkersville, MD, USA). After centrifugation, cells were resuspended in serum-free ductal media adapted from Schreiber et al. at 37 °C in a 5% CO2 incubator. Amplified cells were stored in liquid nitrogen as previously reported. Cells were weaned from antibiotics for ≥48 h before testing.
(§2) Cell viability was evaluated in ten pancreatic cancer cell lines, including MiaPaCa-2, and nine primary pancreatic cancer-derived cell lines: PDAC001T, PDAC012T, PDAC021T, PDAC081T, PDAC082T, PDAC087T, PDAC088T, PDAC089T, and PDAC115T. MiaPaCa-2 cells were obtained from ATCC (Manassas, VA, USA) and maintained in DMEM (Invitrogen, Cergy-Pontoise, France), supplemented with 10% […] at 37 °C with 5% CO2. The primary pancreatic cancer-derived cells were cultured in serum free ductal media (SFDM) following a procedure adapted from those previously described, without antibiotic, and incubated at 37 °C in a 5% CO2 incubator. Cells were plated in 96-well plates (5000 cells/well) overnight. Then, the media were supplemented with the compounds to be tested at 0–100 µM concentration, and the samples were incubated for another additional 72 h before performing the measurement. Cell viability was estimated after addition of PrestoBlue™ reagent (Life Technologies, Paris, France) for 3 h according to the PrestoBlue™ cell viability reagent protocol provided by the supplier. Cell viability was normalized when comparing to untreated cell rates. Experiments were performed in triplicate and each set was repeated three times, with similar results.

PDAC012T cells = assay: Cell viability assay (PrestoBlue); assay type: cell-based; conditions: Homo sapiens; PDAC012T (classical subtype), 72 h
Text: as §1, §2

PDAC021T cells = assay: Cell viability assay (PrestoBlue); assay type: cell-based; conditions: Homo sapiens; PDAC021T (basal subtype), 72 h
Text: as §1, §2

PDAC081T cells = assay: Cell viability assay (PrestoBlue); assay type: cell-based; conditions: Homo sapiens; PDAC081T (classical subtype), 72 h
Text: as §1, §2

PDAC082T cells = assay: Cell viability assay (PrestoBlue); assay type: cell-based; conditions: Homo sapiens; PDAC082T (classical subtype), 72 h
Text: as §1, §2

PDAC087T cells = assay: Cell viability assay (PrestoBlue); assay type: cell-based; conditions: Homo sapiens; PDAC087T (basal subtype), 72 h
Text: as §1, §2

PDAC088T cells = assay: Cell viability assay (PrestoBlue); assay type: cell-based; conditions: Homo sapiens; PDAC088T (classical subtype), 72 h
Text: as §1, §2

PDAC089T cells = assay: Cell viability assay (PrestoBlue); assay type: cell-based; conditions: Homo sapiens; PDAC089T (derived from a liver metastasis), 72 h
Text: as §1, §2

PDAC115T cells = assay: Cell viability assay (PrestoBlue); assay type: cell-based; conditions: Homo sapiens; PDAC115T (basal subtype), 72 h
Text: as §1, §2

MiaPaCa-2 cells = assay: Cell viability assay (PrestoBlue); assay type: cell-based, human; conditions: Homo sapiens, MIA PaCa-2, 72 h, MiaPaCa-2, 72 h
Procedure: as §2

Row | SMILES | N (stoichiometry) (NUPR1) | ΔG (NUPR1) [kcal mol^–1] | ΔH (NUPR1) [kcal mol^–1] | −TΔS (NUPR1) [kcal mol^–1] | Ka (NUPR1) [M^–1 × 10^5] | Kd (NUPR1) [µM] | IC50 (PDAC001T cells) [µM] | IC50 (PDAC012T cells) [µM] | IC50 (PDAC021T cells) [µM] | IC50 (PDAC081T cells) [µM] | IC50 (PDAC082T cells) [µM] | IC50 (PDAC087T cells) [µM] | IC50 (PDAC088T cells) [µM] | IC50 (PDAC089T cells) [µM] | IC50 (PDAC115T cells) [µM] | IC50 (MiaPaCa-2 cells) [µM]
1 | FC(F)(F)c1ccc2c(c1)N(CCCN1CCN(CCN3CCCCC3)CC1)c1ccccc1S2 [ZZW-131] | 0.8 ± 0.1 | −7.7 ± 0.1 | 0.5 ± 0.3 | −8.2 ± 0.3 | 4.7 ± 0.3 | 2.1 ± 0.1 | 3.98 | 5.25 | 6.47 | 0.97 | 6.49 | 4.43 | 8.11 | 10.6 | 5.75 | 0.3
2 | FC(F)(F)c1ccc2c(c1)N(CCCN1CCN(CCCN3CCCCC3)CC1)c1ccccc1S2 [ZZW-145] | 1.2 ± 0.1 | −6.7 ± 0.1 | 0.7 ± 0.5 | −7.4 ± 0.5 | 0.82 ± 0.9 | 11 ± 1 | 2.36 | 2.36 | 2.33 | 0.78 | 2.33 | 2.37 | 5 | 6.22 | 2.44 | 0.19
3 | FC(F)(F)c1ccc2c(c1)N(CCCN1CCN(CCN3CCCC3)CC1)c1ccccc1S2 [ZZW-130] | 1.4 ± 0.1 | −7.9 ± 0.1 | 0.3 ± 0.3 | −8.2 ± 0.3 | 6.4 ± 0.4 | 1.6 ± 0.1 | 2.45 | 4.18 | 3.81 | 1.12 | 4.33 | 4.95 | 6.75 | 6.03 | 2.91 | 0.35
4 | CCN(CC)CCN1CCN(CCCN2c3ccccc3Sc3ccc(C(F)(F)F)cc32)CC1 [ZZW-129] | 1.2 ± 0.1 | −7.5 ± 0.1 | −0.7 ± 0.4 | −6.8 ± 0.4 | 3.1 ± 0.3 | 3.2 ± 0.3 | 1.94 | 2.77 | 3.41 | 0.86 | 3.56 | 4.28 | 7.28 | 7.9 | 2.46 | 0.33
5 | FC(F)(F)c1ccc2c(c1)N(CCCN1CCN(CCCN3CCOCC3)CC1)c1ccccc1S2 [ZZW-148] | 1.2 ± 0.1 | −6.8 ± 0.1 | 0.7 ± 0.5 | −7.5 ± 0.5 | 1.0 ± 0.1 | 9.6 ± 1 | 3.75 | 3.7 | 4.35 | 1.11 | 4.1 | 6.57 | 10.7 | 14.8 | 4.37 | 0.47
6 | CCN(CC)CCCN1CCN(CCCN2c3ccccc3Sc3ccc(C(F)(F)F)cc32)CC1 [ZZW-143] | 1.2 ± 0.1 | −6.4 ± 0.1 | 0.8 ± 0.4 | −7.2 ± 0.4 | 0.5 ± 0.1 | 20 ± 4 | 2.31 | 2.18 | 2.57 | 0.97 | 3.55 | 2.22 | 5.94 | 6.12 | 2.5 | 0.29
7 | FC(F)(F)c1ccc2c(c1)N(CCCN1CCN(CCCN3CCCC3)CC1)c1ccccc1S2 [ZZW-144] | 1.2 ± 0.1 | −6.7 ± 0.1 | 0.5 ± 0.5 | −7.2 ± 0.5 | 0.85 ± 0.8 | 12 ± 1 | 2.51 | 2.51 | 3.69 | 0.98 | 3.04 | 3.57 | 5.8 | 8.38 | 3.22 | 0.26
